Tests used:
[1] = tested on: élément de réponse à la vitamine D (VDRE); experiment: Transient CAT reporter under vitamin D response element (VDRE) in T-47D cells; assay type: cell-based
Text: (§1) On a transfecté de façon transitoire les cellules T-47D avec différentes constructions CAT sous contrôle de l'élément de réponse à l'estradiol (ERE) du gène de la vitellogénine ou celui, plus faible, du gène du récepteur de la progestérone, ainsi que des éléments de réponse à la progestérone (PRE) et aux androgènes (ARE) du virus murin MMTV et d'un élément de réponse à la vitamine D (VDRE) synthétique.

[2] = tested on: cyp 1A1; experiment: In vivo induction of cyp 1A1 in rats by BaP/DMBA (immunoblot of lung and kidney); parameters: species or system rats Sprague-Dawley; conditions: equal concentration of substances (1 mg/kg BaP/DMBA plus 1 mg/kg resvératrol)
Experimental: Des rats Sprague-Dawley femelle ont été traités par une combinaison de Benzol [a]pyrène et de DMBA (diméthylbenzanthracène), deux ligands AhR présents dans la fumée de cigarette. Des expériences préliminaires ont montré que cyp 1A1 était induit à partir de 1 mg/kg des deux ligands administrés ensemble. […] Les animaux ont été sacrifiés et les organes prélevés. Des extraits cellulaires totaux ont été préparés et analysés par immunoblot pour détecter l'expression de cyp 1A1 dans ces tissus.

[3] = tested on: CYP1A1; experiment: Induction of Cyp1A1 protein by dioxin in T-47D cells (Western blot); assay type: cell-based; conditions: for effets agonistes / antagonistes: 10^-5M
Experimental: Les cellules sont collectées et lavées dans le PBS, puis lysées par fusion-congélation répétée en conditions isotoniques. 75 µg de protéines sont analysées par électrophorèse en gel de polyacrylamide en conditions dénaturantes. Le gel est transféré sur une membrane de nylon. La membrane est saturée avec 5 % de lait écrémé et incubée avec un anticorps polyclonal de lapin (Daiichi Pure Chemicals Co, Japan) contre Cyp1A1. Les immuncomplexes sont détectés par chimioluminescence avec le kit Renaissance (DuPont). La figure 2 correspond à la photo du Western blot. La flèche montre la bande spécifique de Cyp1A1, les astérisques signalent des bandes non-spécifiques.

[4] = target: T1, récepteur AhR (Oryctolagus cuniculus, UniProt O02747); experiment: Competition with tritiated dioxin for binding to the AhR receptor in rabbit liver cytosol; parameters: species or system lapin; conditions: for Kd: displacement of labelled dioxin, read-out: Kd apparent (converted)
T1 construct: On a utilisé un cytosol de foie de lapin pour ces études de compétition; from tissue; host or cells: rabbit liver cytosol
T1 sequence (O02747 1-847): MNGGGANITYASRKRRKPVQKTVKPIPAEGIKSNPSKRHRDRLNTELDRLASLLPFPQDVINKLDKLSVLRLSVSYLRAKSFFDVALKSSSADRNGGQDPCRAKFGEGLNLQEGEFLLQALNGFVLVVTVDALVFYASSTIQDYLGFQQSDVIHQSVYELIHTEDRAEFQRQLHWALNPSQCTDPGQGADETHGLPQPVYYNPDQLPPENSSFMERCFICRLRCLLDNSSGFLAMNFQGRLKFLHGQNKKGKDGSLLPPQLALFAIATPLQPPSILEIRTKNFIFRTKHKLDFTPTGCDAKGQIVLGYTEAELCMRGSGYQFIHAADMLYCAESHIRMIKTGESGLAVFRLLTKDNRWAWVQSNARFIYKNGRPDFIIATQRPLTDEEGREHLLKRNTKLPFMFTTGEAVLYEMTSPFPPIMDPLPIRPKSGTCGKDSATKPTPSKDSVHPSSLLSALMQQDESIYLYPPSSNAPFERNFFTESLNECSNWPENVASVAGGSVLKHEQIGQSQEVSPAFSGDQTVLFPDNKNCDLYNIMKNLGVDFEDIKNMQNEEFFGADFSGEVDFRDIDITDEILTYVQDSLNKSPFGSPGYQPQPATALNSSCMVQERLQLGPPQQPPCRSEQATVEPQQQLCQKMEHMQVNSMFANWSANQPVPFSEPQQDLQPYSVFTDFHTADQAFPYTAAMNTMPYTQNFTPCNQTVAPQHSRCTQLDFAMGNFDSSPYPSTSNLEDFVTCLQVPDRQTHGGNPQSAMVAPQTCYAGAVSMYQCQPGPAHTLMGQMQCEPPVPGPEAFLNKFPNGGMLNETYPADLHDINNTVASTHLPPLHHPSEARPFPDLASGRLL

[5] = tested on: élément de réponse à la dioxine; experiment: CAT reporter gene under control of a dioxin response element (DRE), stably transfected T-47D cells; assay type: cell-based; conditions: figure 1A, 10^-6 M de Resvératrol
Text: Les inventeurs ont entrepris d'identifier de nouveaux ligands du récepteur AhR. Pour ce faire, ils ont transfecté de façon stable une lignée de cellules de cancer du sein, T-47D, avec un gène rapporteur (la trans-acétylase du chloramphénicol, ou CAT) placé sous le contrôle d'un élément de réponse à la dioxine ou DRE. La lignée T-47D est connue pour contenir un taux élevé de récepteur AhR (170 femtomoles/mg protéines).
On transfecte de manière stable la lignée T-47D de cellules de cancer du sein avec un gène rapporteur, la trans-acétylase du chloramphénicol, CAT en abrégé, placé sous le contrôle d'un élément de réponse à la dioxine.
On constate que l'inhibition observée est dose-dépendante.

[6] = tested on: éléments de réponse à la progestérone (PRE); experiment: Transient CAT reporter under progesterone response element (PRE) in T-47D cells; assay type: cell-based
Text: as §1

[7] = tested on: NAD(P)H quinone réductase; experiment: NAD(P)H quinone reductase (NQOR) activity in T-47D cells; assay type: cell-based; conditions: 10^-6 M, dioxine 10^-9 M, 72 h
Text: L'activité NQOR correspondante exprimée en nanomoles de cytochrome c réduit, par mg de protéines, par min, est donnée sur la figure 5.

[8] = tested on: éléments de réponse aux androgènes (ARE); experiment: Transient CAT reporter under androgen response element (ARE) in T-47D cells; assay type: cell-based
Text: as §1

[9] = tested on: élément de réponse à l'estradiol (ERE) du gène de la vitellogénine; experiment: Transient CAT reporter under estradiol response element (ERE) in T-47D cells; assay type: cell-based
Text: as §1

[10] = tested on: promoteur de la séquence répétée (LTR) de VIH-1; experiment: HIV-1 LTR promoter CAT construct (-452/+77) transfected in T-47D cells; assay type: cell-based; conditions: dioxine 10^-9 M
Text: On a transfecté les cellules T-47D avec une construction CAT contenant ce promoteur (-452/+77).

SMILES | effet sur VDRE [1] | suppression de l'induction de cyp 1A1 in vivo [2] | effets agonistes / antagonistes [3] | inhibition at 1 µM ([3]; Homo sapiens, T47D, 48 h, read-out: inhibition de l'induction de la protéine CYP1A1) [%] | excès nécessaire pour observer l'inhibition ex vivo ([3]; ex vivo) [fois] | effet inhibiteur compared with α-naphthoflavone ([3]; induction of CYP1A1 by TCDD, T-47D) | affinité compared with indole-3-carbinol [4] | effet sur l'induction de CAT par TCDD [5] | effet sur PRE [6] | répression de l'induction indirecte des enzymes de phase II (NAD(P)H quinone réductase) provoquée par la dioxine [7] | effet sur ARE [8] | effet estrogénique sur l'ERE, fraction of the effect of estradiol ([9]; T-47D, CAT) | effet estrogénique, fraction of the effect of 10^-10 M estradiol ([9]; from 10^-5 M Resvératrol) | suppression de l'induction du promoteur de VIH par la dioxine ([10]; Resvératrol 10^-6 M) | Kd [4] [nM] | fold induction at 0.001 µM ([10]; Homo sapiens, T47D, T-47D, read-out: induction du promoteur de VIH (facteur))
Oc1ccc(/C=C/c2cc(O)cc(O)c2)cc1 [Resvératrol, trans-resvératrol] | aucun effet | totalement supprimée | pur antagoniste | ~60 | 5000 | légérement inférieur | affinité plus forte | effet inhibiteur | aucun effet | ne répriment l'induction indirecte | aucun effet | 1/500.000 | 1/5 | totalement supprimée | – | –
Clc1cc2c(cc1Cl)Oc1cc(Cl)c(Cl)cc1O2 [TCDD, 2,3,7,8-tétrachlorodibenzo (p)dioxine, reference compound] | – | – | – | – | – | – | – | – | – | – | – | – | – | – | 3 | 3
O=c1cc(-c2ccccc2)oc2c1ccc1ccccc12 [α-NF, alpha-7,8-benzoflavone, reference compound] | – | – | effets agonistes autant qu'antagonistes | – | – | – | – | – | – | ne répriment l'induction indirecte | – | – | – | – | 3 | –

Source: EP1075256B1, “ARYLHYDROCARBON RECEPTOR LIGAND ANTAGONISTS” (priority 1998, dated 1999)
